# Source: patent US20250009896A1, “SUPR[…] BASED VIRAL […] CAPTURE FOR PREVENTION AND THERAPY OF VIRAL INFECTION” (The Johns Hopkins University, priority 2023, published 2025)
# Residues, ends and D or L forms follow the SMILES beside them. *: point of attachment. Lauroyl = CCCCCCCCCCCC(=O)*
# Key:
# [1] = Critical micelle concentration by Nile Red assay; type: physicochemical; conditions: MilliQ water pH=7.4, Nile Red assay
# Description: Using a Nile Red assay, the CMC of each PA monomer (Filler and Ligand) and their co-assembly (1:1 molar ratio) was determined. Nile Red dye intensely fluoresces within hydrophobic environments but is strongly quenched and red-shifted in aqueous environments. Thus, when mixed with PAs at a concentration exceeding the CMC, Nile Red will embed within the hydrophobic core and emit a strong fluorescence signal. A 500 μM stock solution of Nile Red was prepared in acetone, and 10 μL of the stock was added to microcentrifuge tubes. Acetone was evaporated off in the dark. Solutions of the samples (500 μL, water) were added to the tubes at varied concentrations and were aged for 2 days in the dark at room temperature. Samples were added to a quartz micro fluorometer cell (0.7 mL, 10 mm pathlength, Starna Cells, Atascadero, CA), and at an excitation wavelength of 550 nm, five parallel emission spectra were recorded at a wavelength range of 580 to 720 nm on a Duetta UV-Vis-NIR spectrofluorometer (HORIBA Scientific). The emission intensity ratio for each run at 635 nm (emission maximum of Nile Red in a hydrophobic environment) to 660 nm (emission maximum of Nile Red in a hydrophilic environment) was plotted against tested concentrations to obtain a transition curve from which CMC was determined.
# [2] = target: Recombinant human angiotensin-converting enzyme 2 (ACE2) (Homo sapiens, UniProt Q9BYF1); test: ACE2 activity assay with fluorogenic peptide substrate Mca-YVADAPK(Dnp)-OH; conditions: 50 nM ACE2; 1 mM Filler or 50 μM Ligand
# Recombinant human angiotensin-converting enzyme 2 (ACE2), sequence (Q9BYF1 18-740): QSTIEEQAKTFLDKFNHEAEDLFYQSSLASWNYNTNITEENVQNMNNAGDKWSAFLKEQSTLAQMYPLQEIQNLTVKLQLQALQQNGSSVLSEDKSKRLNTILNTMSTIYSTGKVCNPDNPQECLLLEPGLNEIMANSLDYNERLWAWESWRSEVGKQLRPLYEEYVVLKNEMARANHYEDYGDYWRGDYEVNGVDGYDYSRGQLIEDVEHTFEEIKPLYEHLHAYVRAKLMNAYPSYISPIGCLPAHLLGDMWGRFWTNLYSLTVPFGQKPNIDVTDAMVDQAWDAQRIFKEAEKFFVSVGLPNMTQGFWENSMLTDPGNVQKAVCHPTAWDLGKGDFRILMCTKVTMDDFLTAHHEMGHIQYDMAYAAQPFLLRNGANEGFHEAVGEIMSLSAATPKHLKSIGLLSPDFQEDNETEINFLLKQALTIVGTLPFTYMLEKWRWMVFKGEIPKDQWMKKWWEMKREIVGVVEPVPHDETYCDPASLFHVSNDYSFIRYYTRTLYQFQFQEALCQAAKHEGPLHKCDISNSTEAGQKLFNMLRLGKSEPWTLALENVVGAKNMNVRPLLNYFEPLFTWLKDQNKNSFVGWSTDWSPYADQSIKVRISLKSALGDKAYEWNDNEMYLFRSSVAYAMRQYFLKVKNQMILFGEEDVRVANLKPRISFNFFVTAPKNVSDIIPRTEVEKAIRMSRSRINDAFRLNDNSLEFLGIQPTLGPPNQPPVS
# [3] = test system: VSVG PsV; type: cell-based, vesicular stomatitis virus
# [4] = test system: SARS-CoV-2 PsV; type: cell-based; conditions: 0.5 nM ACE2 dose
# [5] = test system: SARS-CoV PsV; type: cell-based
# [6] = target: T1, ACE2 (Homo sapiens, UniProt Q9BYF1); conditions: ACE2 inhibitor; cited from earlier work
# T1 sequence (Q9BYF1 18-805): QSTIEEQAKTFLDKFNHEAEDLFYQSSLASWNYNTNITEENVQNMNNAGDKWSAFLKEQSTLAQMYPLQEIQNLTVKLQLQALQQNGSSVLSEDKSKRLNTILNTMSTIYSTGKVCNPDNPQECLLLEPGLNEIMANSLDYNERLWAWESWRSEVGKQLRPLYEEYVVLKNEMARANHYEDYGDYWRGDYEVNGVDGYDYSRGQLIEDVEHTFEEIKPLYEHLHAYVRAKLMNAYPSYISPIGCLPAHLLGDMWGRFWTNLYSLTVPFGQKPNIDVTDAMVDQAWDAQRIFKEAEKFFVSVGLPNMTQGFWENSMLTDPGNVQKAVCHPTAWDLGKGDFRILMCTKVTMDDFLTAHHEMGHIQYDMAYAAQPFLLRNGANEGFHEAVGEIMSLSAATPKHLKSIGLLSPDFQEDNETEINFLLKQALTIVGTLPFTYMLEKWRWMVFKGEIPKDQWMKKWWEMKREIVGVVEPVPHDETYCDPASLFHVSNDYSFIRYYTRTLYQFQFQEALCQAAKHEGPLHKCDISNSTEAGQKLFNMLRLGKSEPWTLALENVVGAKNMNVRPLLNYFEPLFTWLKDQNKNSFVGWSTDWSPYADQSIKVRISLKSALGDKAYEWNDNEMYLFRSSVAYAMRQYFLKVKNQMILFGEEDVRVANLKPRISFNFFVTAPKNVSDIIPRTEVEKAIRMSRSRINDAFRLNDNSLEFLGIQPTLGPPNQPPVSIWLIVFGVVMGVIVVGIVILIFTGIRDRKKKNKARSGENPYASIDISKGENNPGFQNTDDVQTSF
# [7] = target: T1, ACE2; conditions: cited from earlier work
molecule,measurement,setting,value
CCCCCCCCCCCC(=O)N[C@H](C(=O)N[C@H](C(=O)N[C@H](C(=O)NCC(=O)N[C@@H](CCC(=O)O)C(=O)N[C@@H](CCC(=O)O)C(N)=O)C(C)C)C(C)C)C(C)C [Filler] (Lauroyl-VVVGEE-NH2),critical micelle concentration (CMC),[1],around 2.9 μM
same,impact on ACE2 activity / initial velocity,[2],slight impact on ACE2 activity
"ACE2: Recombinant human angiotensin-converting enzyme 2 (ACE2) protein (carrier-free), R&D Systems",VSVG PsV infection inhibition (dose-dependent strong inhibition trend),[3],not observed
same,incubation time at which inhibition becomes identical to / indistinguishable from empty filaments,[4],≤ 6 h
same,SARS-CoV PsV infection inhibition,[5],strongly inhibited
non-cleavable peptidic ACE2 inhibitor GDYSHCSPLRYYPWWKCTYPDPEGGG (SEQ ID NO: 5/16) [DX600],Ki,[6],2.8 nM
same,Kd,[7],10.1 nM
